# Laboratory results from patent US9884818B2, “Sulphamoylpyrrolamide derivatives and the use thereof as medicaments for the treatment of hepatitis B” (Janssen Sciences Ireland UC, priority 2013, dated 2018).
# Columns and labels:
# [1] = test system: HBV; test: Anti-HBV activity, HepG2.2.15 stable transfected cell line, HBV DNA from secreted virions by realtime PCR; type: cell-based; settings: Hepatitis B virus, HepG2.2.15, 144 h, HepG2.2.15 cells, 6 days of treatment, HBV DNA from secreted virions; read-out: HepG2 2.15 EC50
# [2] = test system: HBV; test: Anti-HBV activity, HepG2.117 inducibly HBV producing cell line (Tet-off), intracellular HBV DNA by realtime PCR; type: cell-based; settings: Hepatitis B virus, HepG2.117, 72 h, HepG2.117 cells, 3 days of treatment, intracellular HBV DNA; read-out: HepG2 117 EC50
# [3] = Cytotoxicity in HepG2 cells, Resazurin viability assay; settings: human, HepG2 cells, HepG2 4 days CC50 (μM), incubated for 4 days, Resazurin assay
smiles,measurement,setting,value
"CC[C@@H](NS(=O)(=O)c1cn(C)c(C(=O)Nc2ccc(F)c(C#N)c2)c1F)C(F)(F)F [Compound 288, N-(3-cyano-4-fluoro-phenyl)-3-fluoro-1-methyl-4-[[(1R)-1-(trifluoro-methyl)propyl]sulfamoyl]pyrrole-2-carboxamide]",EC50,[1],7 nM
same,EC50,[2],10 nM
same,CC50 at 4 days,[3],> 25 µM
"Cn1cc(S(=O)(=O)NC(C)(C)C)cc1C(=O)Nc1cccc(Cl)c1F [Compound 193, 4-(tert-Butylsulfamoyl)-N-(3-chloro-2-fluorophenyl)-1-methyl-1H-pyrrole-2-carboxamide]",EC50,[1],140 nM
same,EC50,[2],110 nM
same,CC50 at 4 days,[3],> 25 µM
"Cn1cc(S(=O)(=O)NC2(C)CC(F)(F)C2)cc1C(=O)Nc1cc(F)c(F)c(Cl)c1 [Compound 65, N-(3-chloro-4,5-difluoro-phenyl)-4-[(3,3-difluoro-1-methyl-cyclo-butyl)sulfamoyl]-1-methyl-pyrrole-2-carboxamide]",EC50,[1],10 nM
same,EC50,[2],10 nM
same,CC50 at 4 days,[3],> 25 µM
"CC(C)NS(=O)(=O)c1cc(C(=O)Nc2ccc(F)c(F)c2)n(C)c1 [Compound 22, N-(3,4-difluorophenyl)-4-(isopropylsulfamoyl)-1-methyl-pyrrole-2-carboxamide]",EC50,[1],80 nM
same,EC50,[2],70 nM
same,CC50 at 4 days,[3],> 25 µM
"C[C@@H](NS(=O)(=O)c1cn(C)c(C(=O)Nc2ccc(F)c(C(F)F)c2F)c1Cl)C(F)(F)F [Compound 278, 3-chloro-N-[3-(difluoromethyl)-2,4-difluoro-phenyl]-1-methyl-4-[[(1R)-2,2,2-trifluoro-1-methyl-ethyl]sulfamoyl]pyrrole-2-carboxamide]",EC50,[1],6 nM
same,EC50,[2],10 nM
same,CC50 at 4 days,[3],> 25 µM
"Cn1cc(S(=O)(=O)N[C@H]2CCOC2)cc1C(=O)Nc1ccc(F)c(F)c1 [Compound 21, N-(3,4-difluorophenyl)-1-methyl-4-[[(3S)-tetrahydrofuran-3-yl]-sulfamoyl]pyrrole-2-carboxamide]",EC50,[1],220 nM
same,EC50,[2],840 nM
same,CC50 at 4 days,[3],> 25 µM
"Cn1cc(S(=O)(=O)NC(C)(C)C)cc1C(=O)Nc1cccc(C#N)c1 [Compound 191, 4-(tert-Butylsulfamoyl)-N-(3-cyanophenyl)-1-methyl-1H-pyrrole-2-carboxamide]",EC50,[1],180 nM
same,EC50,[2],160 nM
same,CC50 at 4 days,[3],> 25 µM
"CC(C)NS(=O)(=O)c1cn(C)c(C(=O)Nc2ccc(F)c(Cl)c2)c1F [Compound 235, N-(3-Chloro-4-fluorophenyl)-3-fluoro-1-methyl-4-[(1-methylethyl)sulfamoyl]-1H-pyrrole-2-carboxamide]",EC50,[1],10 nM
same,EC50,[2],10 nM
same,CC50 at 4 days,[3],> 25 µM
"Cn1cc(S(=O)(=O)NC(CF)CF)cc1C(=O)Nc1ccc(F)c(Cl)c1F [Compound 264, N-(3-chloro-2,4-difluoro-phenyl)-4-{[2-fluoro-1-(fluoromethyl)-ethyl]sulfamoyl}-1-methyl-1H-pyrrole-2-carboxamide]",EC50,[1],90 nM
same,EC50,[2],130 nM
same,CC50 at 4 days,[3],> 25 µM
"Cn1cc(S(=O)(=O)NCC(F)(F)F)cc1C(=O)Nc1cc(F)c(F)c(Cl)c1 [Compound 133, N-(3-Chloro-4,5-difluorophenyl)-1-methyl-4-[(2,2,2-trifluoroethyl)sulfamoyl]-1H-pyrrole-2-carboxamide]",EC50,[1],40 nM
same,EC50,[2],80 nM
same,CC50 at 4 days,[3],> 25 µM
"[2H]c1cc(F)c(C)c([2H])c1NC(=O)c1cc(S(=O)(=O)NC(C([2H])([2H])[2H])(C([2H])([2H])[2H])C([2H])([2H])[2H])cn1C [Compound 70, N-(2,6-dideuterio-4-fluoro-3-methyl-phenyl)-1-methyl-4-[[2,2,2-trideuterio-1,1-bis(trideuteriomethyl)ethyl]sulfamoyl]pyrrole-2-carboxamide]",EC50,[1],20 nM
same,EC50,[2],40 nM
same,CC50 at 4 days,[3],> 25 µM
"Cc1c(S(=O)(=O)N[C@H](C)C(F)(F)F)cc(C(=O)Nc2cc(F)c(F)c(Cl)c2)n1C [Compound 137, N-(3-Chloro-4,5-difluorophenyl)-1,5-dimethyl-4-{[(1R)-2,2,2-trifluoro-1-methylethyl]sulfamoyl}-1H-pyrrole-2-carboxamide]",EC50,[1],30 nM
same,EC50,[2],40 nM
same,CC50 at 4 days,[3],16.5 µM
"Cc1cc(NC(=O)c2cc(S(=O)(=O)N[C@H]3CCOC3)cn2C)cc(F)c1F [Compound 37, N-(3,4-difluoro-5-methyl-phenyl)-1-methyl-4-[[(3S)-tetrahydrofuran-3-yl]-sulfamoyl]pyrrole-2-carboxamide]",EC50,[1],730 nM
same,EC50,[2],380 nM
same,CC50 at 4 days,[3],> 25 µM
"Cn1cc(S(=O)(=O)NC23CC(C2)C3)cc1C(=O)Nc1cc(F)c(F)c(Cl)c1 [Compound 167, 4-(Bicyclo[1.1.1]pent-1-ylsulfamoyl)-N-(3-chloro-4,5-difluorophenyl)-1-methyl-1H-pyrrole-2-carboxamide]",EC50,[1],120 nM
same,EC50,[2],310 nM
same,CC50 at 4 days,[3],> 25 µM
"C[C@@H](NS(=O)(=O)c1cc(C(=O)Nc2ccc(F)c(F)c2)n(C)c1)C(F)(F)F [Compound 92, N-(3,4-Difluorophenyl)-1-methyl-4-{[(1R)-2,2,2-trifluoro-1-methylethyl]-sulfamoyl}-1H-pyrrole-2-carboxamide]",EC50,[1],40 nM
same,EC50,[2],30 nM
same,CC50 at 4 days,[3],> 25 µM
"Cn1cc(S(=O)(=O)N[C@H]2C[C@@H](O)C2)cc1C(=O)Nc1ccc(F)c(F)c1 [Compound 25, N-(3,4-difluorophenyl)-4-[(3-hydroxycyclobutyl)sulfamoyl]-1-methyl-pyrrole-2-carboxamide]",EC50,[1],340 nM
same,EC50,[2],230 nM
same,CC50 at 4 days,[3],> 25 µM
"Cn1cc(S(=O)(=O)NC(C)(C)C)c(F)c1C(=O)Nc1ccc(F)c(C#N)c1 [Compound 214, 4-(tert-Butylsulfamoyl)-N-(3-cyano-4-fluorophenyl)-3-fluoro-1-methyl-1H-pyrrole-2-carboxamide]",EC50,[1],60 nM
same,EC50,[2],20 nM
same,CC50 at 4 days,[3],> 25 µM
"Cn1cc(S(=O)(=O)NCC(F)(F)F)cc1C(=O)Nc1ccc(F)c(C#N)c1 [Compound 134, N-(3-Cyano-4-fluorophenyl)-1-methyl-4-[(2,2,2-trifluoroethyl)sulfamoyl]-1H-pyrrole-2-carboxamide]",EC50,[1],180 nM
same,EC50,[2],130 nM
same,CC50 at 4 days,[3],> 25 µM
"C[C@H](NS(=O)(=O)c1cc(C(=O)Nc2ccc(F)c(C#N)c2)n(C)c1)C(C)(F)F [Compound 297, N-(3-cyano-4-fluoro-phenyl)-4-[[(1S)-2,2-difluoro-1-methyl-propyl]sulfamoyl]-1-methyl-pyrrole-2-carboxamide]",EC50,[1],40 nM
same,EC50,[2],90 nM
same,CC50 at 4 days,[3],22.6 µM
"Cn1cc(S(=O)(=O)NCC(F)F)cc1C(=O)Nc1ccc(F)c(Cl)c1 [Compound 128, N-(3-Chloro-4-fluorophenyl)-4-[(2,2-difluoroethyl)sulfamoyl]-1-meth-1H-pyrrole-2-carboxamide]",EC50,[1],150 nM
same,EC50,[2],90 nM
same,CC50 at 4 days,[3],> 25 µM
"Cc1c(S(=O)(=O)NC2(C)COC2)cn(C)c1C(=O)Nc1ccc(F)c(C(F)(F)F)c1 [Compound 179, N-[4-Fluoro-3-(trifluoromethyl)phenyl]-1,3-dimethyl-4-[(3-methyloxetan-3-yl)sulfamoyl]-1H-pyrrole-2-carboxamide]",EC50,[1],300 nM
same,EC50,[2],270 nM
same,CC50 at 4 days,[3],> 25 µM
"Cc1c(S(=O)(=O)NC2(C)COC2)cn(C)c1C(=O)Nc1ccc(F)c(F)c1 [Compound 148, N-(3,4-Difluorophenyl)-1,3-dimethyl-4-[(3-methyloxetan-3-yl)sulfamoyl]-1H-pyrrole-2-carboxamide]",EC50,[1],110 nM
same,EC50,[2],70 nM
same,CC50 at 4 days,[3],> 25 µM
"COCc1c(S(=O)(=O)N[C@H](C)C(F)(F)F)c(F)c(C(=O)Nc2ccc(F)c(C#N)c2)n1C [Compound 309, N-(3-cyano-4-fluoro-phenyl)-3-fluoro-5-(methoxymethyl)-1-methyl-4-[[(1R)-2,2,2-trifluoro-1-methyl-ethyl]sulfamoyl]pyrrole-2-carboxamide]",EC50,[1],530 nM
same,EC50,[2],320 nM
same,CC50 at 4 days,[3],> 25 µM
"CC(C)NS(=O)(=O)c1cn(C)c(C(=O)Nc2ccc(F)c(C#N)c2)c1C#N [Compound 216, 3-Cyano-N-(3-cyano-4-fluorophenyl)-1-methyl-4-[(1-methylethyl)sulfamoyl]-1H-pyrrole-2-carboxamide]",EC50,[1],180 nM
same,EC50,[2],460 nM
same,CC50 at 4 days,[3],> 25 µM
"C[C@H](NS(=O)(=O)c1cc(C(=O)Nc2ccc(F)c(F)c2F)n(C)c1)C(F)(F)F [Compound 154, 1-Methyl-4-{[(1S)-2,2,2-trifluoro-1-methylethyl]sulfamoyl}-N-(2,3,4-trifluorophenyl)-1H-pyrrole-2-carboxamide]",EC50,[1],130 nM
same,EC50,[2],80 nM
same,CC50 at 4 days,[3],> 25 µM
"Cc1c(F)ccc(NC(=O)c2cc(S(=O)(=O)N[C@@H](C)C(F)(F)F)cn2C)c1F [Compound 119, N-(2,4-Difluoro-3-methylphenyl)-1-methyl-4-{[(1S)-2,2,2-trifluoro-1-methylethyl]sulfamoyl}-1H-pyrrole-2-carboxamide]",EC50,[1],30 nM
same,EC50,[2],10 nM
same,CC50 at 4 days,[3],> 25 µM
"C[C@@H](NS(=O)(=O)c1cn(C)c(C(=O)Nc2cccc(C#N)c2F)c1F)C(F)(F)F [Compound 182, N-(3-Cyano-2-fluorophenyl)-3-fluoro-1-methyl-4-{[(1R)-2,2,2-trifluoro-1-methylethyl]sulfamoyl}-1H-pyrrole-2-carboxamide]",EC50,[1],10 nM
same,EC50,[2],30 nM
same,CC50 at 4 days,[3],> 25 µM
"Cc1cc(NC(=O)c2cc(S(=O)(=O)N[C@H](C)C(F)(F)F)cn2C)ccc1F [Compound 9, N-(4-fluoro-3-methyl-phenyl)-1-methyl-4-[[(1R)-2,2,2-trifluoro-1-methyl-ethyl]sulfamoyl]pyrrole-2-carboxamide]",EC50,[1],10 nM
same,EC50,[2],30 nM
same,CC50 at 4 days,[3],> 25 µM
